# Test results as given in PubChem BioAssay AID449762 (Southern Research Specialized Biocontainment Screening …, 2010).
# pIC50: −log10 of the molar value. Records with an inconclusive call do not appear.
# System: M. tuberculosis H37Rv growth inhibition, 7H9 media
# Assay: M. tuberculosis growth inhibition, HTS (AID 449762);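 also: bacterial growth assessed after seven days of incubation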
# Details: for IC90: measured here: IC90 growth inhibition
SMILES,pIC50,IC90 [µM]
Cc1ccc(C(=O)N/C(=C/c2ccco2)C(=O)OCN2C(=O)c3ccccc3C2=O)cc1,5.17,49.9
O=C(CSc1nc2ccccc2c(=O)[nH]1)NCc1ccc(Cl)cc1,5.96,2.7
CSc1nsc(SCC(=O)N2CCCCC2)n1,5.26,8.81
COc1ccc(-c2cn(Cc3ccc(C(=O)NCc4ccc(C)cc4)cc3)c(C(C)N)n2)cc1 (stereo not drawn),4.33,53.2
Cn1cnc([N+](=O)[O-])c1Sc1ccc(Br)cc1,5.06,16.9
O=C(c1cc2cc(Cl)ccc2[nH]1)N1CCN(Cc2ccc3c(c2)OCO3)CC1,–,> 100
NC(=S)N=Nc1ccc(NN=C(N)N)cc1,4.77,24.7
CNC(=O)COC(=O)c1ccc(-c2nc3ccccc3s2)s1,5.68,23
COc1cccc(-c2cc3nc4c(c(NCC(C)(C)CN(C)C)n3n2)CCCC4)c1,4.66,28.2
Cc1ccc(C(C(=O)NCC2CCCO2)N(Cc2ccccc2)C(=O)c2ccc(-c3ccccc3)[nH]2)o1 (stereo not drawn),4.63,35.6
CCCc1ccc(NC(=O)C2CCN(c3cnccn3)CC2)cc1,4.27,78.7
CC(C(c1ccc2c(c1)OCO2)c1c(N)n(C)c(=O)n(C)c1=O)[N+](=O)[O-] (stereo not drawn),5.60,6.08
COc1cc2nc(N3CCN(c4cc(C)ccc4C)CC3)nc(N)c2cc1OC,4.86,15.8
CSCCCNC(=S)N1CCN(c2ccc(C(C)=O)cc2)CC1,4.61,44.1
C=CCN(CC=C)C(=S)NC(=O)c1ccc(-c2ccccc2)cc1,4.97,14.1
Fc1ccc(C[n+]2c(-c3ccccc3)cc(-c3ccccc3)cc2-c2ccccc2)cc1,4.49,44.3
CCN=c1scc(-c2ccco2)n1/N=C/c1ccc(OC)c(O)c1,4.91,41.8
CCN(CCNCC(O)COc1ccccc1C(C)C)c1cccc(C)c1 (stereo not drawn),4.67,28.1
CCCc1cc(NC(=O)CCl)n(-c2ccccc2)n1,6.15,2.29
Cn1nc(-c2ccc(N3CCCCC3)c(NC(=O)c3ccco3)c2)c2ccccc2c1=O,5.63,16.1
Cc1ccc(-n2c(Cl)c(Cl)nc(Cl)c2=O)cc1,5.22,18.3
COC(=O)c1ccc(-c2ncc(-c3cccc4ccccc34)o2)cc1,4.80,52.7
Cc1ccc(-c2cccc(NC(=O)C3C4C=CC(C4)C3C(=O)O)c2)o1 (stereo not drawn),4.13,> 100

SMILES,pIC50,IC90 [µM]
Cc1ccn2nc(S(=O)(=O)Nc3c(F)cccc3F)nc2n1,5.16,9.3
Cc1nn(-c2ccccc2)nc1C(=O)c1c(C)[nH]n(-c2ccccc2)c1=O,5.01,18.7
O=C(CCSc1ccccn1)c1ccccc1,4.99,19.1
CCOC(=O)c1ccccc1NC(=O)COc1coc(CN2CCc3ccccc32)cc1=O,4.75,38.2
COc1ccc(-c2nnc(NC(=O)c3ccc([N+](=O)[O-])o3)o2)c(OC)c1,5.98,3.04
C/C(Cl)=C\COc1cc(C)nc2c(Br)cccc12,4.71,25.1
COc1ccc(-c2csc3ncnc(N4CCN(c5ccccc5OC)CC4)c23)cc1,4.64,26.2
O=C(Nc1ccn(Cc2ccccc2F)n1)c1ccc(COc2ccccc2Cl)cc1,4.93,13.2
O=C(NCC1CCN(c2ccc(S(=O)(=O)N3CCOCC3)cc2)CC1)c1ccc(Cl)cc1,4.50,51.8
Cc1cccc(-c2oc3ccc(-c4ccc5c(c4)OCO5)cc3c2C#Cc2cncn2C)c1,5.54,3.36
COc1cccc2sc3ccc(C#CC4(N)CCCCC4)cc3c(=O)c12,4.21,82.2
CC(C)c1ccc(N2C(=O)NC(=O)/C(=C\C=C\c3ccco3)C2=O)cc1,4.66,35.7
O=C(CCl)NN=C(c1ccccc1)c1ccccc1,6.28,1.89
CC(C)COCc1ccc(O)c2ncccc12,5.79,2.35
O=c1cc(CCl)nc(Cc2c(Cl)cccc2Cl)[nH]1,6.29,68.7
C[C@]12CC[C@@H]3c4ccc(O)cc4CC[C@H]3[C@@H]1CC[C@@H]2OC(=O)CCC1CCCC1,5.19,10.9
CCCCCCCNC(=O)C1(CC2CC(c3cccc(Br)c3)=NO2)CCNCC1 (stereo not drawn),4.38,53.1
O=C(Nc1nc2ccccc2[nH]1)C12CC3CC(CC(C3)C1)C2,4.99,34.5
Cc1cc(C=C2C(=O)NC(=S)NC2=O)c(C)n1C1CCCC1,4.96,47.2
Cc1cccc(CSc2nc3c(c(-c4cccs4)c2C#N)CN(C)CC3)c1,–,> 100
COc1cc2c(cc1OC)CN(CCC(=O)c1ccc(Br)cc1)CC2,4.92,13.7
Cc1ccc(NC(=O)CSc2nc3ccccc3c(=O)n2CCCN2CCCCC2)cc1Cl,4.41,55.5
COc1ccc(NC(=O)/C(Cl)=C(/Cl)S(=O)Cc2ccc(C)cc2)cn1 (stereo not drawn),> 6.70,< 0.2

SMILES,pIC50,IC90 [µM]
COc1cc(/C=C/c2cc[n+](C)cc2)ccc1OCC(=O)Nc1ccc(Cl)c(Cl)c1,4.66,23.5
CCN(C[C@H]1N[C@@](Cc2ccccc2)(C(=O)OC)[C@H]2C(=O)N(Cc3ccccc3)C(=O)[C@@H]12)C(=O)Nc1ccc(C(F)(F)F)cc1,4.98,11.4
CCN(CC)C(=O)[C@H]1CC(CC(=O)NCC23CC4CC(CC(C4)C2)C3)C(=O)N2CCc3c([nH]c4ccccc34)[C@]12C (stereo partly drawn),4.74,24.8
CCOC(=O)N1CCN(Cc2cc(Cl)c3cccnc3c2O)CC1,4.96,21
C=CCn1c(O)c(N=Nc2ccccc2O)c2ccccc21,5.21,24.3
O=C(CCl)Nc1sccc1C(=O)c1ccccc1,> 6.70,1.22
CC(C)C[C@H](NC(=O)c1nc[nH]c1C(=O)NC1CCN(C(=O)OC(C)(C)C)CC1)C(=O)OCc1ccccc1,4.65,25.4
CCOC(=O)CSc1nnc(-c2c[nH]c3ccccc23)o1,6.23,> 100
COc1ccc(NCc2nc3ccccc3n2CCOc2ccccc2)cc1,4.35,50.6
Cc1ccc2nc(=O)c(NNc3ccccc3)cnc2c1,4.78,> 100
CCc1ccc(Nc2n[n+](C)c(-c3ccncc3)s2)cc1,4.34,51.3
O=C(CCl)Nc1cccn2ncnc12,5.86,2.89
CC1CCCCC1NC(=O)c1ccc2c(c1)[nH]c(=O)n2C1CCCC1 (stereo not drawn),5.29,8.42
CNC(=S)/N=C/NOCc1c(Cl)cccc1Cl,5.26,12.9
CSC(=S)N/N=C/c1ccccc1,5.00,12.8
O=C(Nc1ccc(-n2cccc2)cc1)C1CC1,5.74,> 100
Cc1ccc2ccc3ccc(C)nc3c2n1,6.31,1.31
Oc1cccc(-c2nc3ccc4ccccc4c3c3c2CCC3)c1,5.14,26.8
O=C(/C=C/c1ccccc1)N1CCN(CCN2C(=O)c3cccc4cccc(c34)C2=O)CC1,5.71,3.87
COC(=O)C(CCSC)NC(=O)c1cn(-c2ccc(OC)cc2)c(=O)c2ccccc12 (stereo not drawn),4.92,> 100
COc1ccc(C(C)=O)cc1COC(=O)c1ccc2ccccc2n1,4.56,> 100
C=C(CCC(=O)c1ccccc1)C(=O)c1ccccc1,5.14,18.7
C[CH2][Hg][S]c1ccccc1C(=O)O,6.47,0.81

SMILES,pIC50,IC90 [µM]
O=C(/C=C/c1ccc(O)c([N+](=O)[O-])c1)c1ccc2ccccc2c1,5.03,25.6
COC(=O)c1cc(=O)n(-c2ccc(F)cc2)c(=Nc2ccc(F)cc2)s1,> 6.70,1.86
COC(=O)N/N=C/c1c[n+]([O-])c2ccccc2[n+]1[O-],4.88,31.7
Cc1cc(C(=O)N/N=C\C(Br)=C\c2ccccc2)c(C)o1,4.41,53.8
CC(c1ccccc1)N1CCN(C(=O)CCl)CC1 (stereo not drawn),5.90,3.24
O=C(CNC(=O)c1ccc(Cl)cc1)c1ccc(Cl)cc1,4.01,> 100
Cc1ccc(NCc2ccc(O)c3ncccc23)cc1C,4.25,> 100
O=C(CSc1n[nH]c(-c2ccccc2)n1)Nc1ccc(Br)cn1,–,> 100
COc1ccccc1NC(=O)Nc1nc(CC(=O)N2CCN(c3ccccc3F)CC2)cs1,4.38,> 100
Cc1nn(-c2ccccn2)c2c1-c1nc(N3CCOCC3)ncc1CC2,4.89,> 100
Cn1c(NCC(O)c2ccccc2)nc2c1c(=O)n(Cc1ccc(Cl)c(Cl)c1)c(=O)n2C (stereo not drawn),5.12,18.1
Clc1ccc(Nc2ccc(-n3ccnc3)nn2)cc1Cl,4.72,25.3
Cc1ccc2nc(N/N=C/c3ccccc3C#N)nc(-c3ccccc3)c2c1,4.09,> 100
N#Cc1cccc2c1-c1ccccc1/C2=N/NC(N)=O,4.03,> 100
Clc1cccc(-c2cc3nc4c(c(NCc5ccco5)n3n2)CCCC4)c1,4.96,17.4
Cc1cccc(-c2ncc(CN3CCC(CO)(CCCc4ccccc4)CC3)cn2)c1,4.36,73.5
CC(C)Cc1ccc(C(C)C(N)=NCCc2ccccc2)cc1 (stereo not drawn),4.65,25.8
Cn1ccnc1C(O)c1cc(C(C)(C)C)c(O)c(C(C)(C)C)c1 (stereo not drawn),–,> 100
CN1C2CCC1/C(=C/c1ccccn1)C(=O)/C2=C\c1ccccn1,4.79,25.8
CCCCCCCCn1c2c(c(=N)c3c1CCC3)CCCC2,4.72,26.4
C=C1C(=O)O[C@@H]2C[C@@H](C)[C@@H]3C4OC4C(=O)[C@@]3(C)[C@@H](O)[C@H]12 (stereo partly drawn),5.44,9.39
COC(=O)c1ccc(N/C(C)=C/C(=O)c2ccc(C)o2)cc1,4.01,> 100
